Series [1] deals with Toxoplasma gondii. Kind of series: Antiprotozoal activity against tachyzoite stage of Toxoplasma gondii RH assessed as viability at 100 uM after 4 hrs by trypan blue exclusion assay relative to control. Format: functional.
The subject of the next series is Plasmodium falciparum. Kind of series: Antimalarial activity against intraerythrocytic asexual stage of Plasmodium falciparum 3D7 assessed as inhibition of [G-3H]-hypoxanthine uptake by semiautomated microdilution method. Format: functional, organism-based. (Broth dilution looks for growth in wells or tubes with falling amounts of substance.)
The next series relates to Leishmania braziliensis. Kind of series: Antiprotozoal activity against metacyclic promastigote stage of Leishmania braziliensis MHOM/PE/95/LQ2 assessed as growth inhibition after 72 hrs by Alamar Blue assay. The format is functional, organism-based. (Alamar Blue is a resazurin reagent that responds to reducing activity.)
Series [2] concerns Toxoplasma gondii. Nature of the series: Antiprotozoal activity against tachyzoite stage of Toxoplasma gondii RH assessed as viability at 500 uM after 4 hrs by trypan blue exclusion assay relative to control. Format: functional.
The subject of the next series is Acanthamoeba castellanii. Kind of series: Antiprotozoal activity against trophozoite stage of Acanthamoeba castellanii Neff ATCC 30010 after 72 to 120 hrs by Alamar Blue assay. The settings on record: Acanthamoeba castellanii str. Neff. The format is functional.
In series [3] the test system is Trichomonas vaginalis. Kind of series: Trichomonastatic activity against Trichomonas vaginalis JH31A at 10 ug/ml after 24 hrs by Neubauer chamber analysis relative to control. Format: functional.
In series [4] the test system is Trichomonas vaginalis. Nature of the series: Trichomonastatic activity against Trichomonas vaginalis JH31A at 1 ug/ml after 24 hrs by Neubauer chamber analysis relative to control. Format: functional.
For series [5], the system named is Trichomonas vaginalis. Nature of the series: Trichomonastatic activity against Trichomonas vaginalis JH31A at 1 ug/ml after 48 hrs by Neubauer chamber analysis relative to control. The format is functional.
The test system of series [6] is Toxoplasma gondii. Kind of series: Antiprotozoal activity against tachyzoite stage of Toxoplasma gondii RH assessed as viability at 200 uM after 4 hrs by trypan blue exclusion assay relative to control. Format: functional.
For series [7], the system named is Toxoplasma gondii. Kind of series: Antiprotozoal activity against tachyzoite stage of Toxoplasma gondii RH assessed as viability at 1 mM after 4 hrs by trypan blue exclusion assay relative to control. Format: functional.
Series [8] is described as follows: Inhibition of ferriprotoporphyrin-9 biocrystallization by micro-ELISA. For orientation: ELISA stands for enzyme-linked immunosorbent assay.
Series [9] relates to Trichomonas vaginalis. Nature of the series: Trichomonastatic activity against Trichomonas vaginalis JH31A at 100 ug/ml after 48 hrs by Neubauer chamber analysis relative to control. Format: functional.
In series [10] the test system is Trichomonas vaginalis. Nature of the series: Trichomonastatic activity against Trichomonas vaginalis JH31A at 10 ug/ml after 48 hrs by Neubauer chamber analysis relative to control. Format: functional.
Series [11] has as its system Trichomonas vaginalis. Kind of series: Trichomonastatic activity against Trichomonas vaginalis JH31A at 100 ug/ml after 24 hrs by Neubauer chamber analysis relative to control. The format is functional.
The subject of series [12] is Toxoplasma gondii. Nature of the series: Antiprotozoal activity against tachyzoite stage of Toxoplasma gondii RH assessed as extrusion of cytoplasmic content by light microscopic analysis. Format: functional, organism-based.
Series [13] concerns Trichomonas vaginalis. Kind of series: Trichomonacidal activity against Trichomonas vaginalis JH31A at 100 ug/ml after 24 hrs by Neubauer chamber analysis relative to control. Format: functional.
In series [14] the test system is J774. Nature of the series: Cytotoxicity against mouse J774 cells at 100 ug/mL after 24 hrs by MTT assay. Format: cell-based. The settings on record: j774, 24 h.
In series [15] the test system is Trypanosoma cruzi. Kind of series: Trypanocidal activity against epimastigote stage of Trypanosoma cruzi CL Brener at 100 ug/mL after 72 hrs by beta-galactosidase reporter gene assay relative to control. Format: functional.
Series [16] concerns Trypanosoma cruzi. Nature of the series: Trypanocidal activity against epimastigote stage of Trypanosoma cruzi CL Brener at 1 ug/mL after 72 hrs by beta-galactosidase reporter gene assay relative to control. The format is functional.
The subject of series [17] is Trypanosoma cruzi. Nature of the series: Trypanocidal activity against epimastigote stage of Trypanosoma cruzi CL Brener at 10 ug/mL after 72 hrs by beta-galactosidase reporter gene assay relative to control. The format is functional.
Series [18] deals with J774. Kind of series: Cytotoxicity against mouse J774 cells at 10 ug/mL after 24 hrs by MTT assay. The format is cell-based. The note with it: j774, 24 h.
The subject of series [19] is Trichomonas vaginalis. Nature of the series: Trichomonacidal activity against Trichomonas vaginalis JH31A at 10 ug/ml after 24 hrs by Neubauer chamber analysis relative to control. Format: functional.
Series [20] has as its system Trichomonas vaginalis. Kind of series: Trichomonacidal activity against Trichomonas vaginalis JH31A at 100 ug/ml after 48 hrs by Neubauer chamber analysis relative to control. Format: functional.
Series [21] has as its system J774. Kind of series: Cytotoxicity against mouse J774 cells at 1 ug/mL after 24 hrs by MTT assay. The format is cell-based. The settings on record: j774, 24 h.
In series [22] the test system is Trichomonas vaginalis. Kind of series: Trichomonacidal activity against Trichomonas vaginalis JH31A at 0.5 ug/ml after 48 hrs by Neubauer chamber analysis relative to control. The format is functional.
The subject of series [23] is Trichomonas vaginalis. Kind of series: Trichomonacidal activity against Trichomonas vaginalis JH31A at 0.5 ug/ml after 24 hrs by Neubauer chamber analysis relative to control. The format is functional.
For series [24], the system named is Trichomonas vaginalis. Kind of series: Trichomonacidal activity against Trichomonas vaginalis JH31A at 2 ug/ml after 24 hrs by Neubauer chamber analysis relative to control. The format is functional.
The test system of series [25] is Trichomonas vaginalis. Nature of the series: Trichomonacidal activity against Trichomonas vaginalis JH31A at 1 ug/ml after 48 hrs by Neubauer chamber analysis relative to control. The format is functional.
In series [26] the test system is Trichomonas vaginalis. Kind of series: Trichomonacidal activity against Trichomonas vaginalis JH31A at 1 ug/ml after 24 hrs by Neubauer chamber analysis relative to control. Format: functional.
Series [27] concerns Trichomonas vaginalis. Kind of series: Trichomonacidal activity against Trichomonas vaginalis JH31A at 2 ug/ml after 48 hrs by Neubauer chamber analysis relative to control. Format: functional.

Molecules are shown by their SMILES. Activity calls are given as the source filed them. The rule behind the calls is not given here. A value given as a limit tells only on which side of the number the result lay.

Regarding `Br.CN(C)CCCCCN1CC(=O)Nc2cc([N+](=O)[O-])ccc21`, the Activity is 95% in the series with Toxoplasma gondii [1]; 93% in the series on Toxoplasma gondii [2]; 11.43% in the series on Trichomonas vaginalis [3]; 1.22% in the series with Trichomonas vaginalis [4]; 0% in the series on Trichomonas vaginalis [5]; 96% with Toxoplasma gondii [6]. In addition, the Activity with Toxoplasma gondii [7] came to 73%; in the series with Trichomonas vaginalis [9], 28.33%; in the series on Trichomonas vaginalis [10], 14.68%; in the series with Trichomonas vaginalis [11], 29.39%. For the same molecule, the IC50 (as a rule, the point on the concentration scale where inhibition reaches its midpoint) in the series on Plasmodium falciparum was greater than 10 mg/L; in series [8] it was greater than 2000 mg/L. In the series with Leishmania braziliensis, the “growth inhibition (GI)” value is “inactive”. The result in the series on Acanthamoeba castellanii was inactive.

Consider `Br.CN1C(=O)CN(CCCCCN2CCCCCC2)c2ccc([N+](=O)[O-])cc21`, for which the Activity in the series on Toxoplasma gondii [1] turned out to be 81%; in the series with Trichomonas vaginalis [13] it was 100%; in the series with J774 [14], 75.75%; in the series on Toxoplasma gondii [2], 71%; with Trichomonas vaginalis [4], 10.98%; in the series on Trypanosoma cruzi [15] it was 65.46%. Besides, the Activity in the series with Trypanosoma cruzi [16] was found to be 0%; in the series on Trichomonas vaginalis [5], 2.87%; with Toxoplasma gondii [6] it was 77%; in the series with Trypanosoma cruzi [17], 15.38%; in the series with J774 [18], 20.24%; in the series on Trichomonas vaginalis [19] it was 91.61%. The results for the Activity with Trichomonas vaginalis [20], in the series with Toxoplasma gondii [7] and with Trichomonas vaginalis [10] were 100%, 0% and 70.41%, respectively. The IC50 is greater than 10 mg/L in the series on Plasmodium falciparum; 5.3 mg/L with Leishmania braziliensis (MHOM/PE/95/LQ2, 72 h); 1950 mg/L in [8]. Moreover, the result with Toxoplasma gondii [12] was Active. In addition, the “growth inhibition (GI)” value in the series with Leishmania braziliensis is “Dose-dependent effect”. The outcome in the series with Acanthamoeba castellanii was inactive.

For `Br.O=C1CN(CCCCCN2CCCC2)c2ccc([N+](=O)[O-])cc2N1`, the Activity came to 91% in the series on Toxoplasma gondii [1]; 0% in the series on J774 [14]; 0% with J774 [21]; 0% with Toxoplasma gondii [2]; 21.02% in the series with Trichomonas vaginalis [3]; 3.53% in the series with Trichomonas vaginalis [4]. Besides, the Activity in the series on Trypanosoma cruzi [15] stood at 83.54%; with Trypanosoma cruzi [16], 4.38%; in the series on Trichomonas vaginalis [5], 0%; with Toxoplasma gondii [6], 85%; with Trypanosoma cruzi [17], 5.35%; with J774 [18], 0%. For the same molecule, the Activity in the series with Toxoplasma gondii [7] was determined as 0%; with Trichomonas vaginalis [9] it was 34.26%; with Trichomonas vaginalis [10] it was 1.64%; with Trichomonas vaginalis [11] it was 75.61%. Also, the IC50 was greater than 10 mg/L in the series on Plasmodium falciparum and greater than 2000 mg/L in [8]. Also, the outcome in the series with Toxoplasma gondii [12] was Active. For the same molecule, the “growth inhibition (GI)” value in the series on Leishmania braziliensis was “inactive”. In the series on Acanthamoeba castellanii, the outcome was inactive.

Turning to `Cc1ncc([N+](=O)[O-])n1CCO` [METRONIDAZOLE], the Activity was found to be 99.5% with Trichomonas vaginalis [22]; 98% in the series on Trichomonas vaginalis [23]; 100% in the series on Trichomonas vaginalis [24]; 100% in the series with Trichomonas vaginalis [25]; 99.1% in the series on Trichomonas vaginalis [26]; 100% with Trichomonas vaginalis [27].

Values taken from ChEMBL document CHEMBL3112492, “Antiprotozoan lead discovery by aligning dry and wet screening: prediction, synthesis, and biological assay of novel quinoxalinones” (Bioorg Med Chem, 2014).
